# Data taken from patent US9695155B2, “Herbicidal substituted pyrimidinyloxy benzene compounds” (E. I. DU PONT DE NEMOURS AND COMPANY, priority 2013, dated 2017).
# Key:
# giant foxtail [1] = assay: Test A preemergence; format: in vivo, Setaria faberii
# Method in brief: (§1)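 Injury scores run from 0, no effect, to 100, complete control, judged by eye against untreated plants roughly 10 days after treatment. Chemicals carried a surfactant in a non-phytotoxic solvent and went onto loam–sand soil preemergence or onto one- to two-leaf seedlings postemergence.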
# kochia = assay: Test C postemergence; format: in vivo, Kochia scoparia
# Method in brief: (§2)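 Preemergence: seeds sown in a loam soil–sand blend and sprayed with test chemical in a non-phytotoxic solvent mixture containing surfactant. Postemergence: plants at 2 to 18 cm (1- to 4-leaf stage) in peat-based medium, treated with the same formulation. Greenhouse 13 to 15 days, then visual rating 0 (no effect) to 100 (complete control).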
# rice = assay: Test B flooded paddy test; format: in vivo, Oryza sativa; settings: Flood, 250 g ai/ha, 0 to 100 scale where 0 is no effect and 100 is complete control
# Method in brief: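 Plants were grown to the 2-leaf stage, then pots were flooded to 3 cm above the soil and compounds were applied directly into the paddy water. That depth was held throughout, and after 13 to 15 days in the greenhouse injury was rated visually against controls on a 0–100 scale (0 no effect, 100 complete control).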
# Italian ryegrass = assay: Test C postemergence; format: in vivo, Lolium multiflorum
# Method in brief: as §2
# pigweed [2] = assay: Test C preemergence; format: in vivo, Amaranthus retroflexus; settings: for Pigweed plant response rating: preemergence, scale 0 (no effect) to 100 (complete control)
# Method in brief: as §2
# yellow nutsedge [3] = assay: Test C preemergence; format: in vivo, Cyperus esculentus; settings: for Nutsedge, Yellow plant response rating: preemergence, scale 0 (no effect) to 100 (complete control)
# Method in brief: as §2
# wheat, winter = assay: Test C postemergence; format: in vivo, Triticum aestivum
# Method in brief: as §2
# corn = assay: Test C postemergence; format: in vivo, Zea mays
# Method in brief: as §2
# pigweed [4] = assay: Test A preemergence; format: in vivo, Amaranthus retroflexus
# Method in brief: as §1
# giant foxtail [5] = assay: Test C preemergence; format: in vivo, Setaria faberii; settings: for Foxtail, Giant plant response rating: preemergence, scale 0 (no effect) to 100 (complete control)
# Method in brief: as §2
# yellow nutsedge [6] = assay: Test C postemergence; format: in vivo, Cyperus esculentus
# Method in brief: as §2
# velvetleaf = assay: Test A postemergence; format: in vivo, Abutilon theophrasti
# Method in brief: as §1
# galium = assay: Test C postemergence; format: in vivo, Galium aparine; settings: Galium, post-emergence
# Method in brief: as §2
# barnyardgrass = assay: Test C postemergence; format: in vivo, Echinochloa crus-galli; settings: Echinochloa crus-galli, post-emergence
# Method in brief: as §2
# [7] = 125 g ai/ha, 0 to 100 scale where 0 is no effect and 100 is complete control
# [8] = 500 g ai/ha, 0 to 100 scale, 0 no effect, 100 complete control, approx. 10 days
# [9] = Postemergence, 31 g ai/ha, scale 0 to 100 (0 no effect, 100 complete control), 13 to 15 days
# [10] = Postemergence, 62 g ai/ha, scale 0 to 100 (0 no effect, 100 complete control)
# [11] = Preemergence, 31 g ai/ha, scale 0 to 100, 0 no effect, 100 complete control
# [12] = 31 g ai/ha, postemergence, visual rating, scale 0 to 100 (0 no effect, 100 complete control), 13 to 15 days
structure (smiles),measurement,setting,value
FC(F)(F)c1cnn(-c2ccccc2Oc2ncc(Cl)cn2)c1 [Compound 16],"Foxtail, Giant plant response rating",giant foxtail [1]; [7],100
same,"Foxtail, Giant plant response rating",giant foxtail [1]; [8],100
same,"Plant response rating (0 to 100), Kochia","kochia; 125 g ai/ha, postemergence",98
same,"Plant response rating (0 to 100), Kochia","kochia; 250 g ai/ha, postemergence",100
same,"Plant response rating, Kochia",kochia; [9],35
same,"Plant response rating, Kochia",kochia; [10],80
same,"Plant response rating, Rice",rice,40
same,"Plant response rating (0 to 100), Ryegrass, Italian","Italian ryegrass; 125 g ai/ha, postemergence",20
same,"Plant response rating (0 to 100), Ryegrass, Italian","Italian ryegrass; 250 g ai/ha, postemergence",20
same,"Plant response rating, Ryegrass, Italian",Italian ryegrass; [9],10
same,"Plant response rating, Ryegrass, Italian",Italian ryegrass; [10],15
same,Pigweed plant response rating,pigweed [2]; 62 g ai/ha,100
same,Pigweed plant response rating,pigweed [2]; 125 g ai/ha,100
same,Pigweed plant response rating,pigweed [2]; 250 g ai/ha,100
same,"Plant response rating, Pigweed",pigweed [2]; [11],100
same,"Nutsedge, Yellow plant response rating",yellow nutsedge [3]; 62 g ai/ha,25
same,"Nutsedge, Yellow plant response rating",yellow nutsedge [3]; 125 g ai/ha,65
same,"Nutsedge, Yellow plant response rating",yellow nutsedge [3]; 250 g ai/ha,65
same,"Plant response rating, Nutsedge, Yellow",yellow nutsedge [3]; [11],15
same,"Plant response rating (0 to 100), Wheat","wheat, winter; 125 g ai/ha, postemergence",35
same,"Plant response rating (0 to 100), Wheat","wheat, winter; 250 g ai/ha, postemergence",35
same,"Plant response rating, Wheat","wheat, winter; [9]",5
same,"Plant response rating, Wheat","wheat, winter; [10]",15
same,"Plant response rating (0 to 100), Corn","corn; 125 g ai/ha, postemergence",10
same,"Plant response rating (0 to 100), Corn","corn; 250 g ai/ha, postemergence",20
same,"Plant response rating, Corn",corn; [9],5
same,"Plant response rating, Corn",corn; [10],5
same,Pigweed plant response rating,pigweed [4]; [7],100
same,Pigweed plant response rating,pigweed [4]; [8],100
same,"Foxtail, Giant plant response rating",giant foxtail [5]; 62 g ai/ha,98
same,"Foxtail, Giant plant response rating",giant foxtail [5]; 125 g ai/ha,100
same,"Foxtail, Giant plant response rating",giant foxtail [5]; 250 g ai/ha,100
same,"Plant response rating, Foxtail, Giant",giant foxtail [5]; [11],95
same,"Plant response rating (0 to 100), Nutsedge, Yellow","yellow nutsedge [6]; 125 g ai/ha, postemergence",5
same,"Plant response rating (0 to 100), Nutsedge, Yellow","yellow nutsedge [6]; 250 g ai/ha, postemergence",20
same,"Plant response rating, Nutsedge, Yellow",yellow nutsedge [6]; [9],5
same,"Plant response rating, Nutsedge, Yellow",yellow nutsedge [6]; [10],5
same,"Plant response rating, Velvetleaf",velvetleaf; [7],100
same,"Plant response rating, Velvetleaf","velvetleaf; 500 g ai/ha, 0 to 100 scale, 0 no effect, 100 complete control",100
"Fc1cccc(Oc2ncc(Cl)cn2)c1-n1cc(Br)cn1 [Compound 178, 2-[2-(4-bromo-1H-pyrazol-1-yl)-3-fluorophenoxy]-5-chloropyrimidine]",pest or weed control at 125 g/ha,"giant foxtail [1]; Setaria faberi, pre-emergence, 240 h, 125 g ai/ha, 0 to 100 scale where 0 is no effect and 100 is complete control, read-out: Plant response rating, Foxtail, Giant",100%
same,pest or weed control at 500 g/ha,"giant foxtail [1]; Setaria faberi, pre-emergence, 240 h, 500 g ai/ha, 0 to 100 scale where 0 is no effect and 100 is complete control, read-out: Foxtail, Giant plant response rating",100%
same,pest or weed control at 16 g/ha,"kochia; Bassia scoparia, post-emergence, 16 g ai/ha, postemergence, 0 is no effect, 100 is complete control, read-out: Plant response rating (0 to 100), Kochia",60%
same,pest or weed control at 31 g/ha,"kochia; Bassia scoparia, post-emergence, 31 g ai/ha, postemergence, visual rating, scale 0 to 100 (0 no effect, 100 complete control), 13 to 15 days, read-out: Kochia plant response rating",90%
same,pest or weed control at 125 g/ha,"kochia; Bassia scoparia, post-emergence, 125 g ai/ha, postemergence, visual rating, scale 0 to 100 (0 no effect, 100 complete control), read-out: Plant response rating, Kochia",95%
same,pest or weed control at 62 g/ha,"kochia; Bassia scoparia, post-emergence, Postemergence, 62 g ai/ha, scale 0 to 100 (0 no effect, 100 complete control), read-out: Plant response rating, Kochia",95%
same,plant injury at 250 g/ha,"rice; Oryza sativa, read-out: Plant response rating, Rice",0%
same,"Ryegrass, Italian plant response rating",Italian ryegrass; [12],0
same,pest or weed control at 16 g/ha,"Italian ryegrass; Lolium multiflorum, post-emergence, 16 g ai/ha, postemergence, 0 is no effect, 100 is complete control, read-out: Plant response rating (0 to 100), Ryegrass, Italian",0%
same,pest or weed control at 125 g/ha,"Italian ryegrass; Lolium multiflorum, post-emergence, 125 g ai/ha, postemergence, visual rating, scale 0 to 100 (0 no effect, 100 complete control), read-out: Plant response rating, Ryegrass, Italian",20%
same,pest or weed control at 62 g/ha,"Italian ryegrass; Lolium multiflorum, post-emergence, Postemergence, 62 g ai/ha, scale 0 to 100 (0 no effect, 100 complete control), read-out: Plant response rating, Ryegrass, Italian",0%
same,Wheat plant response rating,"wheat, winter; [12]",0
same,plant injury at 16 g/ha,"wheat, winter; Triticum aestivum, post-emergence, 16 g ai/ha, postemergence, 0 is no effect, 100 is complete control, read-out: Plant response rating (0 to 100), Wheat",0%
same,plant injury at 125 g/ha,"wheat, winter; Triticum aestivum, post-emergence, 125 g ai/ha, postemergence, visual rating, scale 0 to 100 (0 no effect, 100 complete control), read-out: Plant response rating, Wheat",0%
same,plant injury at 62 g/ha,"wheat, winter; Triticum aestivum, post-emergence, Postemergence, 62 g ai/ha, scale 0 to 100 (0 no effect, 100 complete control), read-out: Plant response rating, Wheat",0%
same,plant injury at 16 g/ha,"corn; Zea mays, post-emergence, 16 g ai/ha, postemergence, 0 is no effect, 100 is complete control, read-out: Plant response rating (0 to 100), Corn",5%
same,plant injury at 31 g/ha,"corn; Zea mays, post-emergence, 31 g ai/ha, postemergence, visual rating, scale 0 to 100 (0 no effect, 100 complete control), 13 to 15 days, read-out: Corn plant response rating",10%
same,"Corn plant response rating (crop injury, 0 = no effect, 100 = complete kill) at 125 g/ha","corn; Zea mays, post-emergence, 125 g ai/ha, postemergence, visual rating, scale 0 to 100 (0 no effect, 100 complete control)",10%
same,"Corn plant response rating (crop injury, 0 = no effect, 100 = complete kill) at 62 g/ha","corn; Zea mays, post-emergence, Postemergence, 62 g ai/ha, scale 0 to 100 (0 no effect, 100 complete control)",10%
same,Pigweed plant response rating (0 to 100 scale),pigweed [4]; 125 g ai/ha,100
same,pest or weed control at 500 g/ha,"pigweed [4]; Amaranthus retroflexus, pre-emergence, 240 h, 500 g ai/ha, 0 to 100 scale where 0 is no effect and 100 is complete control, read-out: Pigweed plant response rating",100%
same,pest or weed control at 16 g/ha,"galium; 16 g ai/ha, postemergence, 0 is no effect, 100 is complete control, read-out: Plant response rating (0 to 100), Galium",80%
same,pest or weed control at 31 g/ha,"galium; 31 g ai/ha, postemergence, visual rating, scale 0 to 100 (0 no effect, 100 complete control), 13 to 15 days, read-out: Galium plant response rating",75%
same,pest or weed control at 125 g/ha,"galium; 125 g ai/ha, postemergence, visual rating, scale 0 to 100 (0 no effect, 100 complete control), read-out: Plant response rating, Galium",98%
same,pest or weed control at 62 g/ha,"galium; Postemergence, 62 g ai/ha, scale 0 to 100 (0 no effect, 100 complete control), read-out: Plant response rating, Galium",85%
same,"Nutsedge, Yellow plant response rating",yellow nutsedge [6]; [12],5
same,pest or weed control at 16 g/ha,"yellow nutsedge [6]; Cyperus, post-emergence, 16 g ai/ha, postemergence, 0 is no effect, 100 is complete control, read-out: Plant response rating (0 to 100), Nutsedge, Yellow",5%
same,pest or weed control at 125 g/ha,"yellow nutsedge [6]; Cyperus, post-emergence, 125 g ai/ha, postemergence, visual rating, scale 0 to 100 (0 no effect, 100 complete control), read-out: Plant response rating, Nutsedge, Yellow",10%
same,pest or weed control at 62 g/ha,"yellow nutsedge [6]; Cyperus, post-emergence, Postemergence, 62 g ai/ha, scale 0 to 100 (0 no effect, 100 complete control), read-out: Plant response rating, Nutsedge, Yellow",5%
same,Velvetleaf plant response rating,velvetleaf; [7],100
same,pest or weed control at 500 g/ha,"velvetleaf; Abutilon theophrasti, post-emergence, 240 h, 500 g ai/ha, 0 to 100 scale where 0 is no effect and 100 is complete control, read-out: Plant response rating, Velvetleaf",100%
same,pest or weed control at 16 g/ha,"barnyardgrass; 16 g ai/ha, postemergence, 0 is no effect, 100 is complete control, read-out: Plant response rating (0 to 100), Barnyardgrass",5%
same,pest or weed control at 31 g/ha,"barnyardgrass; 31 g ai/ha, postemergence, visual rating, scale 0 to 100 (0 no effect, 100 complete control), 13 to 15 days, read-out: Barnyardgrass plant response rating",5%
same,pest or weed control at 125 g/ha,"barnyardgrass; 125 g ai/ha, postemergence, visual rating, scale 0 to 100 (0 no effect, 100 complete control), read-out: Plant response rating, Barnyardgrass",10%
same,pest or weed control at 62 g/ha,"barnyardgrass; Postemergence, 62 g ai/ha, scale 0 to 100 (0 no effect, 100 complete control), read-out: Plant response rating, Barnyardgrass",5%
